These results are taken from article PMC7613515, “Reading and erasing of the phosphonium analogue of trimethyllysine by epigenetic proteins” (Communications Chemistry, 2022).

For assay [1], the target named is T1, KDM4EJmjC (M1–Q337) (Homo sapiens, UniProt B2RXH2).
T1 construct: We chose human KDM4EJmjC (M1–Q337); made in house
T1 sequence (B2RXH2 1-337): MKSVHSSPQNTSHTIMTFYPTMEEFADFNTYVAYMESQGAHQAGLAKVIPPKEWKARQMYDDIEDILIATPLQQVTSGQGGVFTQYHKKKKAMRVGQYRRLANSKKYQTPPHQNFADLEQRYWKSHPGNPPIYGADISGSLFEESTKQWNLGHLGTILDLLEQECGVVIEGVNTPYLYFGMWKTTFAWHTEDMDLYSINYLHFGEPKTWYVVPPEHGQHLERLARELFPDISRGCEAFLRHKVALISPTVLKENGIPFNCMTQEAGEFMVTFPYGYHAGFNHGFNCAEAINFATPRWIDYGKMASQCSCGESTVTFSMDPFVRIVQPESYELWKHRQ
The assay is described as follows: LC-MS demethylation assay, KDM4EJmjC. Type of assay: biochemical. To be noted: LC-MS time-course, KDM4EJmjC 0.5 µM, peptide 5.0 µM, 22 °C.
Protocol: KDM4EJmjC demethylation studies of H3_1-15K9me3 or H3_1-15KP9me3 incubations using LC-MS were conducted as reported[31], using Agilent RapidFire 365 and Agilent QTOF 6530 machines. In brief, samples were aspirated under vacuum (~50 µL), passed through a loop (10 µL, 400 ms) and wash on a SPE cartridge A (C4) using solvent A (1.5 mL·min^−1, 4500 ms). Peptides were eluted using solvent B (1.25 mL·min^−1, 4500 ms) and directed to the MS for measurements. The cartridge was equilibrated for the next sample (1.25 mL·min^−1, 500 ms) and needle was cleaned with an organic wash solution. Between each sample, an alternating inorganic, organic and inorganic washes were performed to avoid any potential carry over on the SPE cartridge from previous sample. Solvent A: formic acid (0.1%) in water; Solvent B: formic acid (0.1%), acetonitrile (85%) in water; Inorganic wash: water; Organic wash: acetonitrile. Demethylation reactions were conducted in a temperature-controlled room (22 °C) and the MS machine Real-time monitoring mode. A solution [Peptide (6.0 µM), sodium L-ascorbate (600 µM), (NH4)2Fe(II)(SO4)2 (60 µM), disodium 2OG salt (120 µM) in buffer] […] (100 µL) was added and samples from the solution were taken every 2–2.5 min and measured. Note that the time was recorded between the addition and the first aspiration of the enzymatic reaction mixture [Peptide and Enzyme solution mixture]. […]

Assay [2] addresses T2, KDM5APHD3 (JARID1A-PHD3, residues M1489–V1641) (Homo sapiens, UniProt P29375).
T2 construct: KDM5APHD3 (JARID1A-PHD3, residues M1489–V1641); made in house; host or cells: E. coli
T2 sequence (P29375 1489-1641): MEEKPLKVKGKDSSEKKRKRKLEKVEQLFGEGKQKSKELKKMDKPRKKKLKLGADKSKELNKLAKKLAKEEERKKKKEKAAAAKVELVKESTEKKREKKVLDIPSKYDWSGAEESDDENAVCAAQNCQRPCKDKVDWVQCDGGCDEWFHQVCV
Put plainly: ITC, association of histone H3 peptides with KDM5APHD3. Type of assay: binding. To be noted: 25 °C, H3 1-10 peptide, Tris (50 mM), NaCl (20 mM), pH 7.5, from 3 to 5 experiments, ± SD. An excerpt: We investigated the thermodynamics of association of the H3KP4me3 peptide with five representative human reader domains containing either a PHD zinc finger or TTD, i.e. KDM5APHD3 (JARID1A-PHD3, residues M1489–V1641)[10], TAF3PHD (R857–K924)[22], BPTFPHD (L2583–N2751)[23], SGF29TTD (R115–K293)[24] and KDM4ATTD (JMJD2A, Q897-P1011)[25], selected on the basis of their preference for binding Ν^ε-trimethyllysine over other (non)methylation marks (Kme0 < Kme1 < Kme2 < Kme3), and their domain and aromatic cage diversity. The recombinant readers were produced in E. coli following reported procedures. Isothermal titration calorimetric (ITC) analyses were used to determine the dissociation constant (Kd), the Gibbs free energy of binding (ΔG°), the enthalpy of binding (ΔH°), and the entropy of binding (ΔS°). […] (Table 1, Fig. 2, Supplementary Fig. 1).
The following purified reader domains: TAF3PHD (R857-K924), KDM5APHD3 (JARID1A, M1489-V1641), BPTFPHD (L2583-N2751), KDM4ATTD (JMJD2A, Q897-P1011) and SGF29TTD (R115-K293) were prepared as reported[10],[22]–[26]. The histone lysine demethylase were produced and purified to high purity via reported procedures KDM3A (JMJD1A, T515-S1317)[41], KDM4AJmjC[39] (JMJD2A, M1-L359), KDM4EJmjC (JMJD2E, M1–Q337)[34] and KDM7B[40] (PHF8, M37-N483 [NP_001171]). KDM5DJmjC was produced using an N-terminal hexa-His tagged KDM4D (KDM4DM1-L358) DNA construct, transformed into BL21(DE3) competent cells for recombinant protein production. Colonies were used to inoculate of LB media (50 mL) containing kanamycin (50 µg·mL^−1) and chloramphenicol (34 µg·mL^−1), which was placed in a 37 °C shaker overnight. The starter culture (10 mL) was used to inoculate TB media (6 × 1 L) containing kanamycin (50 µg·mL^−1) in 2 L baffled shaker flasks. After reaching an of OD600 of ~0.8, the temperature was reduced to 18 °C; at OD600 ~0.9 the cells were induced by the IPTG (0.5 mM) addition. After shaking overnight, the culture was centrifuged (5000 rpm, 10 mins), the media was decanted, and the cell pellet was suspended in Lysis Buffer [HEPES (50 mM), NaCl (500 mM), imidazole (20 mM), glycerol (5%) and TCEP (0.5 mM) in water (pH 7.4)]. The suspension was lysed by passaging through a high-pressure cell breaker (Avestin – EmulsiFlex-C5) for three rounds. The lysate was cleared by centrifugation (60 minutes, 36,000 × g, 4 °C), then loaded onto a Ni NTA gravity column. […]
ITC studies followed a reported procedure. […] Histone peptide titrations were performed with the same reader batches. Solutions of the reader in buffer (25–40 µM) and of the histone H3 peptide (350–600 µM) in buffer were prepared. […] Heats of dilution for histone peptides determined in control experiments were subtracted from the titration binding data. […]
Background: Isothermal titration calorimetry measures the heat released or taken up as one component is titrated into another.

Regarding “ARTKQTAR(KPme3)STGGKA [H3KP9me3, histone H3 residues 1–15 with trimethylphosphonium lysine analogue at position 9]”, in assay [1], the “demethylation” value is listed as “both are substrates”.
On to `C[C@H](N)C(=O)N[C@@H](CCCNC(=N)N)C(=O)N[C@H](C(=O)N[C@@H](CCCC[P+](C)(C)C)C(=O)N[C@@H](CCC(N)=O)C(=O)N[C@H](C(=O)N[C@@H](C)C(=O)N[C@@H](CCCNC(=N)N)C(=O)N[C@@H](CCCCN)C(=O)N[C@@H](CO)C(N)=O)[C@@H](C)O)[C@@H](C)O` [H3KP4me3], for which, in assay [2], the “-TΔS°” value was found to be 1.9 ± 0.1 kcal/mol, the “ΔG°” value was -9.1 ± 0.1 kcal/mol and the “ΔH°” value is -11.0 ± 0.1 kcal/mol.
